Data set [1] concerns HT-29 cells. Conditions: cited from earlier work.
Data set [2] concerns HT-29 cells. The data set can be described thus: MTT cytotoxicity assay, reference compounds. The settings on record: Homo sapiens, read-out: Toxicity (IC50 value). Type of data set: cell-based. The method, then: (§1) Two human colon adenocarcinoma cell lines, HT-29 (ATCC® HTB-38TM) and […]), were used to evaluate cell cytotoxicity. […] Biowest Europe, Nuaillé, France). […] Cells were grown in 75 cm^2 flasks (Corning Flask, Corning, NY, USA) at 37 °C and in a 5% CO2 atmosphere and the media were renewed every 3 days. […] Cells were seeded at a density of 3.6 × 10^5 cells/mL on well plates, and washed with warm DPBS. […] After that, supernatants were removed from the wells, and MTT (Sigma-Aldrich, St. Louis, MO, USA) solution (0.5 mg/mL) was added (100 μL/well). The plates were immediately incubated for 3 h in darkness. After this time, MTT reagent was aspirated and formazan crystals were diluted in 100 μL of dimethyl sulfoxide (DMSO; Sigma-Aldrich, St. Louis, MO, USA). Absorbance at 570 nm was measured on a Multiskan plate reader (Thermo Scientific, Newington, NH, USA). Cell viability (%) was calculated as Abssample/Abscontrol × 100. Assays were performed in triplicate and three independent experiments were carried out.
Background: Tetrazolium dyes change colour on reduction, which living cells bring about.

The subject of data set [3] is HCT 116 cells. The data set can be described thus: MTT cytotoxicity assay, reference compounds. The format is cell-based. The settings on record: Homo sapiens, read-out: Toxicity (IC50 value). The method, then:
as §1

For data set [4], the system named is HT-29 Glc–/þ cell line. Further details: method as in PMID 25881551. Conditions: 24 h incubation; cited from earlier work.
In data set [5] the test system is Caco 2 cells. More on the design: method as in PMID 30359553. The settings on record: 24 h of incubation; cited from earlier work.

Like-named read-outs stand apart in the source and are kept apart here.

For `Oc1ccccc1` [Phenol], the “Concentration at which compound became cytotoxic” value in data set [1] is 1250 µM. The half-inhibitory concentration (IC50) (commonly the concentration that gives 50% inhibition) in data set [2] (HT-29, 4 h) stood at 15.8 mM; in data set [2] (HT-29, 24 h), 6.16 mM; in data set [3] (HCT-116, 4 h) it was 23.8 mM; in data set [3] (HCT-116, 24 h), 11.4 mM.

Regarding `Cc1ccc(O)cc1` [p-Cresol, p-cresol], the “Concentration from which a cytotoxic effect was exerted” value in data set [1] (24 h of incubation) and in data set [5] was ≥ 3000 µM in each case. Also, the “Concentration with cytotoxicity effects” value in data set [4] was 800 µM. The IC50 in data set [2] (HT-29, 4 h incubation, MTT) is 5.4 mM; in data set [2] (HT-29, 24 h incubation, MTT), 2.13 mM; in data set [3] (HCT 116, 4 h incubation, MTT), 5.64 mM; in data set [3] (HCT 116, 24 h incubation, MTT) it was 4.16 mM.
